Assay results: the supplement of paper PMC10307832

Legend:
Assay in all cases: relative viability (nuclei count vs DMSO), 5 days (fraction); higher = more cells survive
TGX 221 + Foretinib = compound: CC1=CN2C(=O)C=C(N=C2C(=C1)C(C)NC3=CC=CC=C3)N4CCOCC4 [TGX 221] + COc1cc2c(Oc3ccc(NC(=O)C4(C(=O)Nc5ccc(F)cc5)CC4)cc3F)ccnc2cc1OCCCN1CCOCC1 [Foretinib] (partner 0.25 µM)
Summary of the method: (§1)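 Lung cancer cell lines in 1536-well plates got either a single drug or a fixed anchor-drug dose together with five library-drug doses (not always all listed) in √10 steps, by pin tool, on the day after seeding. Nuclei were counted after 5 days, and relative viability is the treated-to-vehicle ratio of nuclei counts. Values are medians of duplicate plates.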

[1] = compound: O=C(CCCCCCNC(=O)c1cnc(N(c2ccccc2)c2ccccc2)nc1)NO [Ricolinostat] + CCNC(=O)c1noc(-c2cc(C(C)C)c(O)cc2O)c1-c1ccc(CN2CCOCC2)cc1 [Luminespib] (partner 0.01 µM)
Summary of the method: as §1

[2] = compound: C1=CC=C(C(=C1)C2=CC=C(C=C2)C3=CSC4=C3C(=C(C(=O)N4)C#N)O)O + COc1cc2c(Oc3ccc(NC(=O)C4(C(=O)Nc5ccc(F)cc5)CC4)cc3F)ccnc2cc1OCCCN1CCOCC1 [Foretinib] (partner 0.25 µM)
Summary of the method: as §1

[3] = compound: O=C(CCCCCCNC(=O)c1cnc(N(c2ccccc2)c2ccccc2)nc1)NO [Ricolinostat] + CC(C)C[C@H](NC(=O)[C@H](Cc1ccccc1)NC(=O)c1cnccn1)B(O)O [Bortezomib] (partner 0.002 µM)
Summary of the method: as §1

Cell Line | relative viability (TGX 221 + Foretinib; first compound 0.08 µM) | relative viability (TGX 221 + Foretinib; first compound 0.253 µM) | relative viability (TGX 221 + Foretinib; first compound 0.8 µM) | relative viability (TGX 221 + Foretinib; first compound 2.53 µM) | relative viability (TGX 221 + Foretinib; first compound 8 µM) | relative viability ([1]; first compound 0.253 µM) | relative viability ([1]; first compound 0.8 µM) | relative viability ([1]; first compound 2.53 µM) | relative viability ([2]; first compound 0.08 µM) | relative viability ([2]; first compound 0.253 µM) | relative viability ([2]; first compound 0.8 µM) | relative viability ([2]; first compound 2.53 µM) | relative viability ([2]; first compound 8 µM) | relative viability ([3]; first compound 0.253 µM) | relative viability ([3]; first compound 0.8 µM) | relative viability ([3]; first compound 2.53 µM) | relative viability ([1]; first compound 0.08 µM) | relative viability ([3]; first compound 0.08 µM)
NCI-H2085 | 1.06 | 0.845 | 0.96 | 0.428 | 0.401 | 0.447 | 0.37 | 0.357 | 1.05 | 0.9 | 0.958 | 0.852 | 0.797 | 1.15 | 0.969 | 0.765 | – | –
LCLC-103H | 0.698 | 0.761 | 0.883 | 0.724 | 0.619 | 0.887 | 0.862 | 0.829 | 0.78 | 0.735 | 0.93 | 0.698 | 0.587 | 0.88 | 1.09 | 0.927 | 0.869 | 0.79
PC-14 | 1.04 | 0.953 | 0.934 | 1.06 | 0.858 | 0.172 | 0.177 | 0.169 | 0.887 | 1.24 | 0.911 | 1.03 | 0.826 | 0.844 | 0.872 | 0.692 | – | 0.812
NCI-H2126 | 1.19 | 1.11 | 1 | 1.05 | 1.05 | 0.919 | 1.01 | 0.862 | 1.41 | 1.22 | 1.43 | 1.15 | 1.01 | 1.07 | 1.1 | 1.02 | – | 0.95
NCI-H2023 | 0.879 | 0.584 | 0.797 | 0.724 | 0.445 | 0.434 | 0.752 | 0.665 | 0.838 | 0.939 | 0.763 | 0.903 | 0.76 | 1.09 | 0.88 | 0.839 | 0.761 | 0.822
SK-LU-1 | 0.808 | 0.703 | 0.768 | 0.63 | 0.657 | 0.204 | 0.212 | 0.223 | 0.886 | 0.733 | 0.871 | 0.947 | 0.734 | 1.04 | 0.916 | 0.46 | 0.199 | 0.895
NCI-H2347 | – | 0.879 | 0.769 | 0.622 | 0.49 | 0.487 | 0.573 | 0.364 | 0.845 | 0.923 | 0.951 | 1.01 | 0.735 | 1.1 | 0.979 | 0.713 | 0.424 | –
HCC-15 | 0.993 | 0.964 | 1 | 0.973 | 1 | 0.28 | 0.382 | 0.497 | 0.996 | 1.1 | 1.13 | 1.12 | 0.898 | 0.987 | 0.983 | 0.925 | 0.3 | 0.897
NCI-H1355 | 0.994 | 0.814 | 0.984 | 0.849 | 0.788 | 0.764 | 0.753 | 0.712 | 0.895 | 1.01 | 1.12 | 0.951 | 0.703 | 1.23 | 1.17 | 1.06 | 0.645 | –
NCI-H2405 | 1.01 | 0.99 | 1.04 | 0.897 | 0.863 | 0.929 | 0.69 | 0.874 | 1.05 | 1.04 | 1.01 | 1.01 | 0.983 | 0.952 | 0.932 | 0.992 | 0.615 | 0.816
EKVX | 0.691 | 0.914 | 0.763 | 0.691 | 0.925 | 0.783 | – | 0.902 | 0.882 | 0.828 | 0.799 | 0.831 | 0.743 | 1.03 | 1.16 | 0.83 | 0.74 | –
NCI-H1993 | 0.723 | 0.787 | 0.755 | 0.71 | 0.664 | 0.941 | 0.87 | 0.724 | 0.67 | 0.52 | 0.765 | 0.76 | 0.723 | 1 | 1.25 | 1.15 | – | 0.861
HOP-62 | 1.09 | 1.1 | 1.05 | 1.15 | 1.08 | 0.857 | 0.884 | 0.747 | 1.15 | 1.01 | 1.17 | 1.28 | 1 | 0.595 | 0.799 | 0.532 | 0.84 | 0.501
ABC-1 | 1.1 | 0.806 | 0.817 | 1.1 | 0.835 | 0.761 | 0.527 | 0.261 | 1 | 1.13 | 1.05 | 0.951 | 1.09 | 0.302 | 0.25 | 0.264 | 0.537 | 0.311
NCI-H1755 | 0.926 | 0.884 | 0.82 | 0.763 | 0.781 | 0.528 | 0.442 | 0.752 | 0.966 | 0.924 | 0.89 | 0.929 | 0.95 | – | 0.978 | 0.926 | 0.489 | 0.929
NCI-H838 | 1.04 | 0.952 | 0.945 | 0.799 | 0.7 | 0.291 | 0.289 | 0.169 | 1.06 | 0.981 | 1.05 | 0.954 | 0.91 | 0.973 | 0.943 | 0.756 | 0.254 | 0.767
NCI-H322M | 0.924 | 0.869 | 1 | 0.763 | 0.765 | 0.974 | 0.988 | 1.09 | 1.01 | 1.02 | 0.935 | 1.02 | 0.954 | 1.14 | 1.29 | 1.22 | – | –
NCI-H441 | 1.11 | 0.849 | 0.919 | 0.897 | 0.96 | 0.376 | 0.328 | 0.373 | 1.07 | 1.15 | 1 | 1.27 | 0.976 | 0.341 | 0.342 | 0.25 | – | 0.596
EMC-BAC-2 | 1.03 | 0.882 | 0.882 | 0.903 | 0.773 | 1.14 | 1.12 | 1.11 | 1.07 | 1.1 | 0.989 | 0.963 | 0.896 | 1.12 | 1.06 | 0.941 | 1.05 | 0.957
